Data published in ChEMBL document CHEMBL5126530, “Building on endogenous lipid mediators to design synthetic receptor ligands” (Eur J Med Chem, 2022).
pEC50: −log10 of the molar value.

Tests used:
Assay type in all cases: functional, cell-based
[1] = target: T1, Prostaglandin E2 receptor EP1 subtype (Homo sapiens, UniProt P34995); assay: Agonist activity at human EP1 expressed in HEK293 cells assessed as increase in cAMP level incubated for 20 mins measured after 60 mins addition of cAMP detect reagent by HTRF analysis
T1 sequence (P34995 whole entry): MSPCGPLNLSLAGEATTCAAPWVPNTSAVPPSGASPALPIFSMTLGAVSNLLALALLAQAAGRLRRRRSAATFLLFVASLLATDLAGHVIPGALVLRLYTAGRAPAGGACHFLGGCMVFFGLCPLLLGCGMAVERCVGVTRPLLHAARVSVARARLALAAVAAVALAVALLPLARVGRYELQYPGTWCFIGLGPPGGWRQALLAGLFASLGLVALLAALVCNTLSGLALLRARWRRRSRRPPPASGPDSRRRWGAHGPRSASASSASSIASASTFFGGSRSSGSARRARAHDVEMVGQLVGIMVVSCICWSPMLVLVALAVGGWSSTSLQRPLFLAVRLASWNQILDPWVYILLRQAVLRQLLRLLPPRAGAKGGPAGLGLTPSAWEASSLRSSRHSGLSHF

[2] = target: T2, Prostaglandin D2 receptor (Homo sapiens, UniProt Q13258); assay: Agonist activity at human DP1 expressed in human 1321N1 cells assessed as increase in cAMP level incubated for 20 mins measured after 60 mins addition of cAMP detect reagent by HTRF analysis
T2 sequence (Q13258 whole entry): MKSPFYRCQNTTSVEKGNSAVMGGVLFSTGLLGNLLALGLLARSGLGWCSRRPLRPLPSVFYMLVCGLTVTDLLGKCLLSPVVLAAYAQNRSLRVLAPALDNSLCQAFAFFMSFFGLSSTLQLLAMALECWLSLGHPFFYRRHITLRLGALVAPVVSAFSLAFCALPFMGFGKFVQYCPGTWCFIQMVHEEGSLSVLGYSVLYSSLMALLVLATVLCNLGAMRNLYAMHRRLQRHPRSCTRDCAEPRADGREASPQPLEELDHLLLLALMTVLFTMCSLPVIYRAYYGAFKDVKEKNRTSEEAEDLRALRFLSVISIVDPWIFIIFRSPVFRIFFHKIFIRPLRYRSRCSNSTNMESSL

[3] = target: Prostaglandin E2 receptor EP2 subtype (Homo sapiens, UniProt P43116); assay: Agonist activity at human EP2 expressed in HEK293 cells assessed as increase in cAMP level incubated for 20 mins measured after 60 mins addition of cAMP detect reagent by HTRF analysis
Sequence of Prostaglandin E2 receptor EP2 subtype (P43116 whole entry): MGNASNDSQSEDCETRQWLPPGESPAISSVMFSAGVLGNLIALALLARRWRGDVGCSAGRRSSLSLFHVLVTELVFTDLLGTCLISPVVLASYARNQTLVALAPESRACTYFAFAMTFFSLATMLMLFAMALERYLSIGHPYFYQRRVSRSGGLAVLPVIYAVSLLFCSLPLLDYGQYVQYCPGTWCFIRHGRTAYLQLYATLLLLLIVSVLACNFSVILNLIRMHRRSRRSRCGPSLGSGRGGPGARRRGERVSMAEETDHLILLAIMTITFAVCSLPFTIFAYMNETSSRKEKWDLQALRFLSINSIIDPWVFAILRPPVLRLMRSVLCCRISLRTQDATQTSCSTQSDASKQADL

Prostacyclin receptor = Prostacyclin receptor (Homo sapiens, UniProt P43119); assay: Agonist activity at human IP expressed in HEK293 cells assessed as increase in cAMP level incubated for 20 mins measured after 60 mins addition of cAMP detect reagent by HTRF analysis
Sequence of Prostacyclin receptor (P43119 whole entry): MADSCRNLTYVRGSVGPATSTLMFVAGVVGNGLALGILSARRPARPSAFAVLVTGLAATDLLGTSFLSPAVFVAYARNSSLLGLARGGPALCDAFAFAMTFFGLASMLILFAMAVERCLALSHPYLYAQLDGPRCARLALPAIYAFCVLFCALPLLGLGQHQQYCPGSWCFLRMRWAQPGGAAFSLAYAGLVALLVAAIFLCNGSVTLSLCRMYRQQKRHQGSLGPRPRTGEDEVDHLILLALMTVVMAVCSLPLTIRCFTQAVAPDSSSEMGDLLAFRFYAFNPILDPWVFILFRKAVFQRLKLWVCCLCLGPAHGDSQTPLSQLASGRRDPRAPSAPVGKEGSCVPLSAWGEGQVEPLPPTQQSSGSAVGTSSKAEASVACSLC

| pEC50 [1] | pEC50 [2] | pEC50 [3] | pEC50 (Prostacyclin receptor) | SMILES |
| --- | --- | --- | --- | --- |
| 9.52 | 5.69 | 5.68 | – | CC#CCC(C)[C@H](O)/C=C/[C@@H]1[C@H]2C/C(=C/CCCC(=O)O)C[C@H]2C[C@H]1O (some centres not stated) [ILOPROST] |
| 6.55 | 9.22 | 8.21 | 8.72 | CCCCC[C@H](O)CC[C@@H]1[C@H]2Cc3cccc(OCC(=O)O)c3C[C@H]2C[C@H]1O [TREPROSTINIL] |
